In patent publication US8232273B2, “Heterocyclic compounds and methods of use” (Genentech, Inc., priority 2008, dated 2012):

These compounds were tested against Bcl-xL (GST-Bcl-xL) (Homo sapiens, UniProt Q07817) (assay: TR-FRET binding assay, competition with F-Bak for the Bcl-xL binding site). Settings: values listed in the order of Table 1, read-out: TR-FRET assay results (Ki), Bcl-xL.
Method: The measurement of competition of compounds of the invention with F-Bak for a Bcl-2 family protein (Bcl-xL) binding site using a Time Resolved Fluorescence Resonance Energy Transfer (TR-FRET) binding assay:
Test compounds were serially diluted in DMSO starting at 50 μM (2× starting concentration; 10% DMSO) and 10 μt transferred into a 384-well plate.
The samples are then mixed on a shaker for 1 minute then incubated for an additional 2 hours at room temperature. For each assay plate, a probe/antibody and protein/antibody/probe mixture were included as a negative and a positive control, respectively. Fluorescence was measured on the Envision (Perkin Elmer) using a 340/35 nm excitation filter and 520/525 (F-Bak) and 495/510 nm (Tb-labeled anti-his antibody) emission filters. Dissociation constants (Ki) were determined using Wang's equation (see, Wang, Z. X. An exact mathematical expression for describing competitive binding of two different ligands to a protein molecule. FEBS Lett. 1995 360:111-114). The TR-FRET assay can be performed in the presence of varying concentrations of human serum (HS) or fetal bovine serum (FBS).

Chain of Bcl-xL (GST-Bcl-xL) (Q07817 whole entry, species assumed): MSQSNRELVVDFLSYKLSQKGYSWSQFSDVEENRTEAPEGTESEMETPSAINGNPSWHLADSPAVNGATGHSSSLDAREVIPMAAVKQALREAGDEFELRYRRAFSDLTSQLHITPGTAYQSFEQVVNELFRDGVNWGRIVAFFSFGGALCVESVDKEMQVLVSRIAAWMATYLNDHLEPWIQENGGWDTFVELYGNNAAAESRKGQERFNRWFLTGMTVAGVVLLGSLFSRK

Row | SMILES | Ki
1 | N#Cc1c(-c2cccc(OCCCc3sc(N4CCc5cccc(C(=O)Nc6nc7ccccc7s6)c5C4)nc3C(=O)O)c2)n[nH]c1N [Example 39, 5-(3-(3-(5-amino-4-cyano-1H-pyrazol-3-yl)phenoxy)propyl)-2-(8-(benzo[d]thiazol-2-ylcarbamoyl)-3,4-dihydroisoquinolin-2(1H)-yl)thiazole-4-carboxylic acid] | 200 pM
2 | O=C(Nc1nc2ccccc2s1)c1cccc2c1CN(c1nc(C(=O)O)c(CCCCOc3ccc(-n4ncc5cncnc54)cc3)s1)CC2 [Example 43, 5-(4-(4-(1H-pyrazolo[3,4-d]pyrimidin-1-yl)phenoxy)butyl)-2-(8-(benzo[d]thiazol-2-ylcarbamoyl)-3,4-dihydroisoquinolin-2(1H)-yl)thiazole-4-carboxylic acid] | 5000 pM
3 | O=C(Nc1nc2ccccc2s1)c1cccc2c1CN(c1nc(C(=O)O)c(CCCOc3ccc(-n4ccnc4)cc3)s1)CC2 [Example 66, 5-(3-(4-(1H-imidazol-1-yl)phenoxy)propyl)-2-(8-(benzo[d]thiazol-2-ylcarbamoyl)-3,4-dihydroisoquinolin-2(1H)-yl)thiazole-4-carboxylic acid] | 100 pM
4 | CN(C)CCCc1ccc(OCCCc2sc(N3CCc4cccc(C(=O)Nc5nc6ccccc6s5)c4C3)nc2C(=O)O)cc1 [Example 107, 2-(8-(benzo[d]thiazol-2-ylcarbamoyl)-3,4-dihydroisoquinolin-2(1H)-yl)-5-(3-(4-(3-(dimethylamino)propyl)phenoxy)propyl)thiazole-4-carboxylic acid] | 150 pM
5 | CC(=O)N1CCN(c2ccc(OCCCc3sc(N4CCc5cccc(C(=O)Nc6nc7ccccc7s6)c5C4)nc3C(=O)O)cc2)CC1 [Example 61, 5-{3-[4-(4-Acetyl-piperazin-1-yl)-phenoxy]-propyl}-2-[8-(benzothiazol-2-ylcarbamoyl)-3,4-dihydro-1H-isoquinolin-2-yl]-thiazole-4-carboxylic acid] | 300 pM
6 | CN1CCN(c2ccc(OCCCc3ccc(N4CCc5cccc(C(=O)Nc6nc7ccccc7s6)c5C4)nc3C(=O)O)c(F)c2)CC1 [Example 101, 6-(8-(benzo[d]thiazol-2-ylcarbamoyl)-3,4-dihydroisoquinolin-2(1H)-yl)-3-(3-(2-fluoro-4-(4-methylpiperazin-1-yl)phenoxy)propyl)picolinic acid] | 700 pM
7 | CN(C)CC#Cc1ccc(OCCCc2sc(N3CCc4cccc(C(=O)Nc5nc6ccccc6s5)c4C3)nc2C(=O)NS(C)(=O)=O)c(F)c1 [Compound 142, 2-(8-(benzo[d]thiazol-2-ylcarbamoyl)-3,4-dihydroisoquinolin-2(1H)-yl)-5-(3-(4-(3-(dimethylamino)prop-1-ynyl)-2-fluorophenoxy)propyl)-N-(methylsulfonyl) thiazole-4-carboxamide] | 88 pM
8 | O=C(Nc1nc2ccccc2s1)c1cccc2c1CN(c1nc(C(=O)O)c(CCCN3CCOCC3)s1)CC2 [Example 19, 2-(8-(benzo[d]thiazol-2-ylcarbamoyl)-3,4-dihydroisoquinolin-2(1H)-yl)-5-(3-morpholinopropyl)thiazole-4-carboxylic acid] | 9000 pM
9 | CN(C)CCCNc1ncnc2c1cnn2-c1ccc(OCCCc2ccc(N3CCc4cccc(C(=O)Nc5nc6ccccc6s5)c4C3)nc2C(=O)O)cc1 [Example 92, 6-(8-(benzo[d]thiazol-2-ylcarbamoyl)-3,4-dihydroisoquinolin-2(1H)-yl)-3-(3-(4-(4-(3-(dimethylamino)propylamino)-1H-pyrazolo[3,4-d]pyrimidin-1-yl)phenoxy)propyl)picolinic acid] | 50 pM
10 | N[C@H]1[C@@H]2CCC[C@H]1[C@@H](c1ccc(OCCCc3sc(N4CCc5cccc(C(=O)Nc6nc7ccccc7s6)c5C4)nc3C(=O)O)cc1)CC2 [Example 80, 5-(3-(4-((1S,2S,5R,9S)-9-aminobicyclo[3.3.1]nonan-2-yl)phenoxy)propyl)-2-(8-(benzo[d]thiazol-2-ylcarbamoyl)-3,4-dihydroisoquinolin-2(1H)-yl)thiazole-4-carboxylic acid] | 500 pM
11 | O=C(Nc1nc2ccccc2s1)c1cccc2c1CN(c1nc(C(=O)O)c(CCCOc3ccc(-c4cn[nH]c4)cc3)s1)CC2 [Example 73, 5-(3-(4-(1H-pyrazol-4-yl)phenoxy)propyl)-2-(8-(benzo[d]thiazol-2-ylcarbamoyl)-3,4-dihydroisoquinolin-2(1H)-yl)thiazole-4-carboxylic acid] | 80 pM
12 | O=C(Nc1nc2ccccc2s1)c1cccc2c1CN(c1nc(C(=O)O)c(CCCOc3ccc(C4=CSC5=NCCN45)cc3)s1)CC2 [Example 53, 2-(8-(benzo[d]thiazol-2-ylcarbamoyl)-3,4-dihydroisoquinolin-2(1H)-yl)-5-(3-(4-(5,6-dihydroimidazo[2,1-b]thiazol-3-yl)phenoxy)propyl)thiazole-4-carboxylic acid] | 50 pM
13 | CN1CCN(CCCN(CCCc2sc(N3CCc4cccc(C(=O)Nc5nc6ccccc6s5)c4C3)nc2C(=O)O)c2ncnc3c2cnn3-c2ccc(O)cc2)CC1 [Example 91, 2-(8-(benzo[d]thiazol-2-ylcarbamoyl)-3,4-dihydroisoquinolin-2(1H)-yl)-5-(3-((1-(4-hydroxyphenyl)-1H-pyrazolo[3,4-d]pyrimidin-4-yl)(3-(4-methylpiperazin-1-yl)propyl)amino)propyl)thiazole-4-carboxylic acid] | 700 pM
14 | O=C(Nc1nc2ccccc2s1)c1cccc2c1CN(c1ccc(CCCO)c(C(=O)O)n1)CC2 [Example 99, 6-[8-(Benzothiazol-2-ylcarbamoyl)-3,4-dihydro-1H-isoquinolin-2-yl]-3-(3-hydroxy-propyl)-pyridine-2-carboxylic acid] | 125000 pM
15 | O=C(Nc1nc2ccccc2s1)c1cccc2c1CN(c1nc(C(=O)O)c(CCCOc3ccc(-n4cncn4)cc3)s1)CC2 [Example 67, 5-(3-(4-(1H-1,2,4-triazol-1-yl)phenoxy)propyl)-2-(8-(benzo[d]thiazol-2-ylcarbamoyl)-3,4-dihydroisoquinolin-2(1H)-yl)thiazole-4-carboxylic acid] | 50 pM
16 | O=C(Nc1nc2ccccc2s1)c1cccc2c1CN(c1nc(C(=O)O)c(CCCOc3cc(F)c(NCCN4CCOCC4)cc3F)s1)CC2 [Example 115, 2-(8-(benzo[d]thiazol-2-ylcarbamoyl)-3,4-dihydroisoquinolin-2(1H)-yl)-5-(3-(2,5-difluoro-4-(2-morpholinoethylamino)phenoxy)propyl)thiazole-4-carboxylic acid] | 50 pM
17 | N#Cc1c(-c2cccc(OCC#Cc3sc(N4CCc5cccc(C(=O)Nc6nc7ccccc7s6)c5C4)nc3C(=O)O)c2)n[nH]c1N [Example 36, 5-(3-(3-(5-amino-4-cyano-1H-pyrazol-3-yl)phenoxy)prop-1-ynyl)-2-(8-(benzo[d]thiazol-2-ylcarbamoyl)-3,4-dihydroisoquinolin-2(1H)-yl)thiazole-4-carboxylic acid] | 5000 pM
18 | O=C(Nc1nc2ccccc2s1)c1cccc2c1CN(c1nc(C(=O)O)c(C#Cc3ccc4cc(OCCCN5CCOCC5)ccc4c3)s1)CC2 [Example 110, 2-(8-(benzo[d]thiazol-2-ylcarbamoyl)-3,4-dihydroisoquinolin-2(1H)-yl)-5-((6-(3-morpholinopropoxy)naphthalen-2-yl)ethynyl)thiazole-4-carboxylic acid] | 70 pM
19 | O=C(Nc1nc2ccccc2s1)c1cccc2c1CN(c1nc(C(=O)O)c(CCCCn3ccnc3)s1)CC2 [Example 72, 5-(4-(1H-imidazol-1-yl)butyl)-2-(8-(benzo[d]thiazol-2-ylcarbamoyl)-3,4-dihydroisoquinolin-2(1H)-yl)thiazole-4-carboxylic acid] | 3000 pM
20 | N#Cc1c(-c2cccc(OCc3ccc(-c4sc(N5CCc6cccc(C(=O)Nc7nc8ccccc8s7)c6C5)nc4C(=O)O)cc3)c2)n[nH]c1N [Example 37, 5-(4-((3-(5-amino-4-cyano-1H-pyrazol-3-yl)phenoxy)methyl)phenyl)-2-(8-(benzo[d]thiazol-2-ylcarbamoyl)-3,4-dihydroisoquinolin-2(1H)-yl)thiazole-4-carboxylic acid] | 4000 pM
21 | Cn1cnnc1-c1ccc(OCCCc2sc(N3CCc4cccc(C(=O)Nc5nc6ccccc6s5)c4C3)nc2C(=O)O)cc1 [Example 68, 2-(8-(benzo[d]thiazol-2-ylcarbamoyl)-3,4-dihydroisoquinolin-2(1H)-yl)-5-(3-(4-(4-methyl-4H-1,2,4-triazol-3-yl)phenoxy)propyl)thiazole-4-carboxylic acid] | 200 pM
22 | N#Cc1c(-c2ccc(OCC#Cc3sc(N4CCc5cccc(C(=O)Nc6nc7ccccc7s6)c5C4)nc3C(=O)O)cc2)n[nH]c1N [Example 40, 5-(3-(4-(5-amino-4-cyano-1H-pyrazol-3-yl)phenoxy)prop-1-ynyl)-2-(8-(benzo[d]thiazol-2-ylcarbamoyl)-3,4-dihydroisoquinolin-2(1H)-yl)thiazole-4-carboxylic acid] | 400 pM
23 | O=C(Nc1nc2ccccc2s1)c1cccc2c1CN(c1nc(C(=O)O)c(CCOCc3ccccc3)s1)CC2 [Compound 134, 2-(8-(benzo[d]thiazol-2-ylcarbamoyl)-3,4-dihydroisoquinolin-2(1H)-yl)-5-(2-(benzyloxy)ethyl)thiazole-4-carboxylic acid] | 600 pM

Same assay, conditions: with 1% human serum (HS)

Row | SMILES | Ki
24 | CN(C)CC#Cc1ccc(OCCCc2sc(N3CCc4cccc(C(=O)Nc5nc6ccccc6s5)c4C3)nc2C(=O)O)cn1 [Example 57, 2-(8-(benzo[d]thiazol-2-ylcarbamoyl)-3,4-dihydroisoquinolin-2(1H)-yl)-5-(3-(6-(3-(dimethylamino)prop-1-ynyl)pyridin-3-yloxy)propyl)thiazole-4-carboxylic acid] | 70 pM
